Reference: a melting point compilation (Tetko et al.; mined from patent text by program, amines drawn as free bases though some values may be those of a salt)

melting point [°C] | Structure (SMILES)
114 to 115 | COC(=O)C=C(Nc1cc2c(cc1OCc1ccccc1)N(C(=O)OC(C)(C)C)CC2COC(C)=O)C(F)(F)F (stereo unspecified)
75 to 77 | CCN(CC)CCNC(=O)c1ccc2cc(I)ccc2n1
> 300 | CC(C)(C)C(=O)c1c[nH]c2ncc(-c3ccc(C(=O)NC4CCCC4)s3)nc12
121 to 122 | Cc1cc(CCCCCCCOc2ccc(C(=O)NN)cc2)on1
255 | COc1cc(CC(=O)Nc2ccc(C3CN(Cc4ccccc4)CC3C(=O)O)cc2)ccc1NC(=O)Nc1ccccc1C (stereo unspecified)
123 to 124 | CO[C@H]1O[C@@H](C)[C@@H]2[C@H](O)[C@H]3CCCC[C@@H]3C[C@H]12
162 to 166 | CC1(C)[C@@H](CS(=O)(=O)c2ccc(S(C)(=O)=O)cc2)CC[C@@]1(C)NCC(=O)N1CCC[C@H]1C#N
174 to 176 | O=C(NO)c1ccc(CNC(=O)c2[nH]c(-c3ccccc3)cc2-c2ccc(Br)cc2)cc1
88 to 89 | CCOC(=O)c1ccc(CCN(C)CCCC(C#N)(C(=O)OC)c2ccc(OC)c(OC)c2)cc1 (stereo unspecified)
81 to 82 | CC1CCCC(C)N1C(=O)CSC#N (stereo unspecified)
123 to 125 | O=Cc1nn(-c2ccc(F)cc2)c2c1CCC2
80.5 to 81 | COCCOc1ccc(C=O)c(Oc2ncc(C(F)(F)F)cc2Cl)c1
225 to 230 | O=C1c2ccccc2C(=O)c2c1cc(CBr)c1c2CCC1
152 to 155 | CCCCOCCOc1ccc(-c2ccc3c(c2)C=C(C(=O)O)CCN3CC2CC2)cc1
264 to 265 | O=c1[nH]c(=S)[nH]c2c1cnn2CC(O)c1ccccc1 (stereo unspecified)
115 to 116 | N#Cc1ccc(-c2ccco2)cn1
140 to 142 | COc1cn(-c2ccc(C3CC3)cc2F)nc(-c2ccnn2-c2ccccc2)c1=O
83.9 | O=C(c1cccs1)C1CCN(Cc2ccccc2)CC1
233 to 235 | CCn1ncc2c(NC)c3c(nc21)C(=NC)c1ccccc1CC3
147 to 150 | O=C(NC1=NCCC1)Nc1ccc(Cl)cc1
210 to 211 | CCCc1nc2c(N)nc3ccccc3c2n1CCCCCC(N)=O
126 to 134 | CC(C(=O)NCC(F)(F)C(F)(F)F)C(=O)NC1C(=O)N(C)c2c(F)cccc2OC1C (stereo unspecified)
155 to 156 | CCCc1nc2c(N)nc3cccnc3c2n1CCCCN(OC)C(=O)Nc1ccccc1
108 to 110 | CCOC(=O)CCCn1c(=O)n(CCN2CCN(c3ccccc3OC)CC2)c(=O)c2cscc21

melting point [°C] | Structure (SMILES)
115 | CC1(C)[C@@H](C=C(c2ccccc2)c2ccccc2)[C@@H]1C(=O)O (relative stereo)
155 to 157 | COc1cc(C(C)=O)ccc1OCCCN1CCN(c2n[nH]c3ccccc23)CC1
78 to 81 | Fc1ccc2c(c1)C(=C1CCNCC1)c1ncccc1CC2
74 | O=C(O)CCC(=O)NCCCCCC1CCSS1 (stereo unspecified)
170 | Oc1ccc(Nc2nc(Cl)cc3ccccc23)cc1
39 to 40 | CCCCCCCCCCCCCCC[C@@H](O)C(Cl)C(=O)OC (stereo partly specified)
219 to 220 | CC(C)Cn1c(CNC(=O)OC(C)(C)C)c(-c2ccccc2)c2cc(OC(C)(C)C(=O)O)ccc2c1=O
146 to 147 | CC(C)n1nc(-c2sc(C(=O)NC3CC3)nc2-c2cccc(F)c2)ccc1=O
173 to 174 | CN1C(=O)c2ccccc2N=C(NCCc2ccccc2)C1c1ccccc1 (stereo unspecified)
132 to 133 | CCCC(=O)c1cnc2c(OC)cccc2c1Nc1sccc1C
226 to 228 | Nc1ncccc1-c1nc2cccnc2n1-c1ccc(CNC(=O)c2ccccc2)cc1
155 to 157 | CC(C(=O)O)c1ccc2c(c1)oc1ccc(Cl)cc12 (single isomer, unassigned; (+))
202 | CCOC(=O)c1cn(CCO)c2cc(Cl)c(F)cc2c1=O
119 to 121 | N#Cc1c(F)ccc(O)c1F
117 to 118 | O=C1c2cccc(Br)c2C(=O)N1c1ccc(OC(F)(F)F)cc1
234 to 237 | CCOC(=O)c1c[nH]c2c(OC)ccc(-c3ccccc3)c2c1=O
122 to 124 | C#CCOc1ccc(CCNC(=O)C(=O)c2ccc(-c3ccc(Cl)cc3)cc2)cc1OC
255 to 257 | Cc1ccc(C(=O)C2=C(O)C(=O)N(c3ccc(C(F)(F)F)cn3)C2c2ccc(C(C)C)cc2)cc1 (stereo unspecified)
119 to 120 | CN(c1ccc(Br)cc1)S(=O)(=O)c1cccc(C(=O)Nc2ccc(F)cc2F)c1
84 to 85 | CCCCCCCCCCCCCCOc1ccc(CC(=O)CO)cc1
90 to 91 | O=C(CCSc1ccc2ccccc2c1)c1ccccc1
97 to 99 | COc1ccc([C@H](C)NC(=O)c2cccnc2Oc2ccc(F)cc2)cc1
226 | CCOC(=O)c1cn(-c2ccncc2F)c2nc(Cl)c(F)cc2c1=O
80.5 | CCOCc1ccc(CN(O)C(N)=O)o1

melting point [°C] | Structure (SMILES)
92 to 93 | CNC(=O)c1cccc(NC(=O)Cc2ccc3c(c2)CC(C)(C)O3)c1
84 to 86 | Oc1ccccc1N1CCC(CNC[C@H]2COc3ccc(Cl)cc3O2)CC1
220 to 221 | COC1=NS(=O)(=O)N(C)C(Oc2ccc([N+](=O)[O-])cc2)=N1
98 to 99 | O=C(CCCN1CCOCC1)c1ccc2oc3ccc(C(=O)CCCN4CCOCC4)cc3c2c1
151 to 152 | Cc1oc(-c2ccccc2)nc1COc1cccc(CN(O)C(N)=O)c1
99 to 102 | Cc1nc2ccccc2nc1Oc1ccc(OCc2ccccc2)cc1
139 to 145 | CCCCN1CCC(CNC(=O)c2ccc(N)n3cc(CC)nc23)CC1
101 to 104 | Clc1ccc2nccc(Cl)c2c1
110 to 111 | COC(=O)C(Br)Cc1ccc(OC)c(C(=O)NCc2ccc(C(F)(F)F)cc2)c1 (stereo unspecified)
89 to 90 | COc1ccc2c(n1)c(CCNC(C)=O)c1n2CCCC1
192 to 193 | Cc1cccc(C)c1NC(=O)NO
73 to 75 | O=C(O)C[C@@H](c1cc(F)cc(F)c1)C(F)(F)F
136 to 139 | COc1cccc2c1nc(C1CC1)n2Cc1c(F)cccc1F
147 to 148 | O=[N+]([O-])c1ccc(S(=O)(=O)NCC2CCN(C[C@H]3COc4ccc(Cl)cc4O3)CC2)cc1
156 to 158 | Nc1ccc(CCN2CCN(c3ccc(N)cc3)CC2)cc1
148 to 151 | O=CNCCSc1ccc2nccn2n1
251 to 254 | Nc1nc2c(ncn2COCCO)c(=S)[nH]1
150 to 151 | CN1C(=O)SC(S(=O)(=O)c2cccc3c(Br)cccc23)C1=O (stereo unspecified)
207 to 209 | O=[N+]([O-])c1ccc(C=[N+]([O-])c2cccc(CO)c2)cc1
158 | O=C(OC1CCCCC1)C1=C(O)c2ccccc2S(=O)(=O)N1
231 to 232 | O=C(NCc1ccccn1)Nc1cc(-n2c(=O)n(-c3ccccc3)c3ccccc32)ccn1
132 to 133 | COc1ccc(C2CN(C)C(=O)O2)cc1OC (stereo unspecified)
128 to 130 | COc1ccc2c(c1)c(COC(C)(C)C(=O)O)nn2Cc1ccccc1
113 | NC(=O)COc1cccc(CCNS(=O)(=O)c2ccc(Cl)cc2)c1

melting point [°C] | Structure (SMILES)
47 | CNc1cc(C)ccc1C(C)=O
195 to 201 | Cc1ncc(CSSCc2cnc(C)c(O)c2CN(C)C)c(CN(C)C)c1O
74 to 76 | CCCN(c1ccncn1)n1cc(C)c2ccccc21
58 to 59.5 | CCCc1c(OCCCCCCOc2ccc(C(=O)c3cccc(C(=O)OCC)c3)cc2CCC(=O)OCC)ccc2c1OCCC2=O
150 to 151 | Nc1ccc(-n2ccn(-c3ccc(OC(F)(F)C(F)F)cc3)c2=O)cc1
164 to 173 | O=C(O)c1cc2cc(Cl)ccc2nc1NC(Cc1ccc(C#Cc2ccccc2)cc1)C(=O)O (stereo unspecified)
104 | N#Cc1ccc(C=CC(=O)C2CC2)cc1
160 to 162 | Cc1cc(F)ccc1-c1nc(OCCCS(C)(=O)=O)nc2c1ccc(=O)n2-c1c(F)cccc1F
53 to 55 | COC(=O)c1cnc(Cl)c2ccccc12
159 to 162 | CCOC(=O)C1=C(C)NC(c2cnc(Cl)s2)=NC1c1ccc(F)cc1Cl (stereo unspecified)
148 to 150 | COc1cc(C(=O)N2CCN(C(=O)C=C(c3ccccc3)c3ccccc3)CC2)cc(OC)c1OC
183 to 185 | N#CSc1nc(I)ncc1I
95 | Cc1ccnc(-c2ccoc2)c1OC1SCC(O)C(O)C1O (stereo unspecified)
111 to 113 | COC(=O)c1ccc(OCC2CC(=O)N(c3ccc(OS(C)(=O)=O)cc3)C2)cc1 (stereo unspecified)
108 to 110 | CN(C(=O)OC(C)(C)C)c1cc(OCc2ccccc2)ccc1[N+](=O)[O-]
209 to 210 | Nc1c(NCCCOc2cccc(C3OCCO3)c2)c(=O)c1=O
309 | Nc1nnc(-c2cc(F)c(F)c(F)c2O)s1
47 to 48 | O=C(c1ccccc1)N1CC2COCC2C1 (stereo unspecified)
166 to 168 | COc1cnn([C@@H]2C[C@H](O)[C@@H](O)[C@H]2O)c(=O)c1Cl (racemic)
166 to 168 | Cc1nn(C)c2cc(-c3ccc(F)cc3)nc(-c3ccc4c(c3)OCO4)c12
152 to 153 | O=C(/C=C/c1cccc(NC(=O)CCCc2ccccc2)c1)NO

Structure (SMILES) | melting point [°C]
ClCc1nc2cc(Br)ccc2s1 | 107
CCCCN1CCN2c3ccc(C)cc3C(c3ccco3)=[N+]([O-])CC2C1 (stereo unspecified) | 104 to 106
CC1(C)C(C=C2CCSC2=O)C1C(=O)OC(C#N)c1ccc(F)c(Oc2ccccc2)c1 (stereo unspecified) | 131
CN1C(=O)C(NC(=O)Nc2ccc(F)cc2)N=C(c2ccccc2)c2ccccc21 (stereo unspecified) | 269 to 270
Oc1cccc2c1CC[C@H]1[C@@H]2CCN1CCC1CCCCC1 | 130 to 133
Cc1ccc(C(=O)P2(=O)Oc3ccccc3-c3ccccc32)c(C)c1 (stereo unspecified) | 166
CC(C=Cc1cccc(-c2cc3c(cc2C)C(C)(C)CCC3(C)C)c1)=CC(=O)O | 99 to 101
O=C1c2ccccc2CN1CCCN1CC=C(c2ccccc2)CC1 | 104
